Paper PMC9000418 (Molecules, 2022)
Where two headings read alike, the source gives them in different places.

Key:
[1] = biological target: AChE (Electrophorus electricus, UniProt O42275); experiment: AChE inhibition, in vitro modified Ellman's spectrophotometric method; type: biochemical; conditions: read-out: AChE % Inhibition
From the text: The assay was completed in two steps.
The reagents and materials used in the enzyme inhibition assay were supplied commercially by Sigma-Aldrich (St. Louis, MO, USA) and Fluka (Steinheim, Germany). The cholinesterase enzyme inhibition procedure was applied as reported in our previous research papers.

[2] = test system: BChE; type: biochemical
Description: The inhibitory activities of all of the obtained chalcone derivatives (3a–3j) against cholinesterase enzymes were evaluated using the previously described in vitro modified Ellman’s spectrophotometric method.
The assay was completed in two steps. […].
[…]. The reagents and materials used in the enzyme inhibition assay were supplied commercially by Sigma-Aldrich (St. Louis, MO, USA) and Fluka (Steinheim, Germany). The cholinesterase enzyme inhibition procedure was applied as reported in our previous research papers.

[3] = In vitro BBB permeability assay (PAMPA); type: in vitro ADME; conditions: for Type of BBB Permeation: PAMPA, PBS pH 7.4, donor 100 μM; for BBB permeability (in words): in vitro PAMPA
Description: As it is known, the ability of drugs to be used in diseases related to the central nervous system to pass the blood–brain barrier is an indispensable feature. These properties of the synthesized compounds were estimated using physicochemical parameters. […].
To observe the BBB permeability of the active compounds 3i and 3j, the parallel artificial membrane permeability assay (PAMPA) was performed as previously described. Briefly, the solutions of each compound were prepared in dimethyl sulfoxide (DMSO) at 10 mM and then diluted with PBS (Phosphate-Buffered Saline; pH = 7.4) to obtain the donor drug solution with the nominal final concentration of 100 μM (297 μL of buffer + 3 μL of DMSO drug solution). An amount of 100 μM is suitable for direct HPLC-DAD measurements. This solution was shaken for 1 h at room temperature in a 96-well polypropylene plate (Agilent, Waldbronn, Germany) and then filtered to avoid solid particles. The data were measured in 3 replicates on each plate. After the preparation of the solutions, the assay procedure was performed according to the kit method.

[4] = Cytotoxicity MTT assay in NIH/3T3 cell line; type: cell-based; conditions: mouse, NIH/3T3 mouse embryonic fibroblast cells, read-out: IC50 against NIH/3T3 cells (cytotoxicity)
Description: The NIH/3T3 mouse embryonic fibroblast cell line (ATCC® CRL-1658™, London, UK) was used for cytotoxicity assays. The incubation period of NIH/3T3 cells was based on the supplier’s recommendation. NIH/3T3 cells were seeded at 1 × 10^4 cells into each well of the 96-well plates. The MTT assay was carried out in accordance with the standards previously described.

[5] = DPPH free radical scavenging antioxidant activity
From the text: This activity method is a method based on measuring the scavenging effects of the DPPH• (1,1-Diphenyl-2-picrylhydrazil) radical, which is a stable organic nitrogen radical of antioxidants. One of the few stable organic nitrogen radicals, the DPPH• radical is dark violet in color. This method, which is based on the scavenging of the DPPH radical via antioxidants, is a redox reaction. When this radical interacts with hydrogen donors, it is reduced to hydrazine. The dark purple color of the methanolic DPPH• solution turns yellow with the addition of antioxidants, and the change in absorbance is measured spectrophotometrically. More illumination is determined by a greater reduction in the absorbance of the reaction mixture and indicates higher radical scavenging capacity.
For the DPPH free radical scavenging activity test, test compounds were prepared at 10 µM, 1 µM, 0.1 µM, and 0.01 µM concentrations, as shown in Figure 3. By using the absorbance changes determined because of the spectroscopic measurement, the % DPPH free radical scavenging activities of the synthesized compounds and reference materials (ascorbic acid and citric acid) were determined. The % antioxidant activities of all tested compounds were calculated based on the control.
This is a method based on measuring the scavenging effects of the DPPH (1,1-Diphenyl-2- picrylhydrazyl) radical, a stable organic nitrogen-centered free radical. To prepare the DPHH solution, 9.86 mg of DPPH was measured and topped up to 25 mL with methanol. A total of 100 µL of DPPH solution and 100 µL of the test solutions were placed in the test wells. Only 200 µL of methanol was used for blank reading; 100 µL of methanol and 100 µL of DPPH solution were used for control. After incubation, spectrophotometric reading was performed at 517 nm.

AChE, sequence (O42275 24-633): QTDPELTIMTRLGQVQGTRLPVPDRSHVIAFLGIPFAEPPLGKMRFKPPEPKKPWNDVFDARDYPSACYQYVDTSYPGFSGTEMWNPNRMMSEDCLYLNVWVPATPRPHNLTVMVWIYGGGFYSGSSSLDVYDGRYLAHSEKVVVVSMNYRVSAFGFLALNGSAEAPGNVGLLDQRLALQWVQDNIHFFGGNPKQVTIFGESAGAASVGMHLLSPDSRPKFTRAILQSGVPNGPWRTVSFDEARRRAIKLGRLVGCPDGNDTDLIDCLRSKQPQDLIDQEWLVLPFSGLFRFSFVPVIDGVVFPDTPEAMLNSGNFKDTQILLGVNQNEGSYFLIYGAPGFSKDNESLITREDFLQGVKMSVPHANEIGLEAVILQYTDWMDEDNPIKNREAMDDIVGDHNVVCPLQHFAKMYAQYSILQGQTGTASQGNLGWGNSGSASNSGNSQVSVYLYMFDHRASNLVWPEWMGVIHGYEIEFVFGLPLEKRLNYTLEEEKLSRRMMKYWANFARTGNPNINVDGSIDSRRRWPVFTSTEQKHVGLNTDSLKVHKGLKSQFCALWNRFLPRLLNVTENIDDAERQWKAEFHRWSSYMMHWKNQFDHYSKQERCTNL

Compound | inhibition at 100 µM [1] [%] | inhibition at 1000 µM [1] [%] | BChE % Inhibition ([2]; 10^−3 M) [%] | BChE % Inhibition ([2]; 10^−4 M) [%] | Type of BBB Permeation [3] | BBB permeability (in words) [3] | IC50 [4] [µM] | % DPPH free radical scavenging (inhibition) ([5]; 0.01 µM) | % DPPH free radical scavenging (inhibition) ([5]; 0.1 µM) | % DPPH free radical scavenging (inhibition) ([5]; 1 µM) | % DPPH free radical scavenging (inhibition) ([5]; 10 µM)
O=C1CSc2ccc(C(=O)CSc3nnc(NC4CCCCC4)s3)cc2N1 [Compound 3f, 6-(2-((5-(Cyclohexylamino)-1,3,4-thiadiazol-2-yl)sulfanyl)acetyl)-2H-benzo[b][1,4]thiazin-3(4H)-one] | 45 ± 1 | 65.4 ± 1.3 | 30.5 ± 0.8 | 26.2 ± 0.8 | – | – | – | – | – | – | –
CC(C)CNc1nnc(SCC(=O)c2ccc3c(c2)NC(=O)CS3)s1 [Compound 3e, 6-(2-((5-(Isobutylamino)-1,3,4-thiadiazol-2-yl)sulfanyl)acetyl)-2H-benzo[b][1,4]thiazin-3(4H)-one] | 46.2 ± 0.8 | 69.9 ± 1.2 | 37.3 ± 0.8 | 24.6 ± 0.9 | – | – | – | – | – | – | –
COc1ccc(Nc2nnc(SCC(=O)c3ccc4c(c3)NC(=O)CS4)s2)cc1 [Compound 3i, 6-(2-((5-((4-Methoxyphenyl)amino)-1,3,4-thiadiazol-2-yl)sulfanyl)acetyl)-2H-benzo[b][1,4]thiazin-3(4H)-one] | 90.5 ± 1.1 | 93.2 ± 1.4 | 40.2 ± 0.9 | 28.0 ± 0.8 | CNS+ High BBB permeation (High BBB permeation Pe (10^−6 cm s^−1) > 4.0) | high BBB permeability | 98.3 ± 3.98 | 65.00% ± 1.10 | 75.00% ± 1.80 | 82.00% ± 1.20 | 90.00% ± 2.40
O=C1CSc2ccc(C(=O)CSc3nnc(Nc4ccc(Cl)cc4)s3)cc2N1 [Compound 3j, 6-(2-((5-((4-chlorophenyl)amino)-1,3,4-thiadiazol-2-yl)sulfanyl)acetyl)-2H benzo[b][1,4]thiazin-3(4H)-one] | 92.3 ± 1.3 | 96.5 ± 1.2 | 42.5 ± 0.9 | 27.9 ± 0.7 | CNS+ High BBB permeation (High BBB permeation Pe (10^−6 cm s^−1) > 4.0) | high BBB permeability | 160 ± 5.53 | 68.00% ± 1.50 | 73.00% ± 1.40 | 85.00% ± 2.00 | 92.00% ± 1.80
Cc1ccc(Nc2nnc(SCC(=O)c3ccc4c(c3)NC(=O)CS4)s2)cc1 [Compound 3h, 6-(2-((5-(p-Tolylamino)-1,3,4-thiadiazol-2-yl)sulfanyl)acetyl)-2H-benzo[b][1,4]thiazin-3(4H)-one] | 42.7 ± 0.8 | 82.2 ± 1.8 | 35.6 ± 0.7 | 23.5 ± 0.7 | – | – | – | – | – | – | –
CCCCNc1nnc(SCC(=O)c2ccc3c(c2)NC(=O)CS3)s1 [Compound 3d, 6-(2-((5-(Butylamino)-1,3,4-thiadiazol-2-yl)sulfanyl)acetyl)-2H-benzo[b][1,4]thiazin-3(4H)-one] | 47.3 ± 0.9 | 72.7 ± 1.5 | 36.1 ± 0.9 | 21.4 ± 0.9 | – | – | – | – | – | – | –
CCNc1nnc(SCC(=O)c2ccc3c(c2)NC(=O)CS3)s1 [Compound 3a, 6-(2-((5-(Ethylamino)-1,3,4-thiadiazol-2-yl)sulfanyl)acetyl)-2H-benzo[b][1,4]thiazin-3(4H)-one] | 48.8 ± 0.8 | 78.2 ± 1.2 | 31.8 ± 0.8 | 25.1 ± 0.8 | – | – | – | – | – | – | –
CCCNc1nnc(SCC(=O)c2ccc3c(c2)NC(=O)CS3)s1 [Compound 3b, 6-(2-((5-(Propylamino)-1,3,4-thiadiazol-2-yl)sulfanyl)acetyl)-2H-benzo[b][1,4]thiazin-3(4H)-one] | 45.6 ± 0.9 | 75.4 ± 1.4 | 34.9 ± 0.8 | 26.9 ± 0.6 | – | – | – | – | – | – | –
CC(C)Nc1nnc(SCC(=O)c2ccc3c(c2)NC(=O)CS3)s1 [Compound 3c, 6-(2-((5-(Isopropylamino)-1,3,4-thiadiazol-2-yl)sulfanyl)acetyl)-2H-benzo[b][1,4]thiazin-3(4H)-one] | 40.1 ± 0.9 | 70.6 ± 1 | 29.1 ± 0.8 | 20.4 ± 0.7 | – | – | – | – | – | – | –
O=C1CSc2ccc(C(=O)CSc3nnc(Nc4ccccc4)s3)cc2N1 [Compound 3g, 6-(2-((5-(Phenylamino)-1,3,4-thiadiazol-2-yl)sulfanyl)acetyl)-2H-benzo[b][1,4]thiazin-3(4H)-one] | 44.5 ± 0.8 | 80.1 ± 1.2 | 39.6 ± 0.9 | 24.8 ± 0.8 | – | – | – | – | – | – | –
